Results taken from ChEMBL document CHEMBL4007434, “Indazole-Based Covalent Inhibitors To Target Drug-Resistant Epidermal Growth Factor Receptor” (J Med Chem, 2017).
Calls of active or inactive are those of the source. The calls are words filed in the database; no cut-off is given here.

system: Liver; assay: Stability in human liver microsomes at 3 uM up to 50 mins by LCMS analysis; format: ADME, microsome; details: not given

Compound | Stability
C=CC(=O)Nc1cc(Nc2n[nH]c3cc(-c4ccncc4)ccc23)c(OC)cc1N(C)CCN(C)C | Stable
C=CC(=O)Nc1cc(Nc2n[nH]c3cc(-c4cn(C)c5ccccc45)ccc23)c(OC)cc1N(C)CCN(C)C | Stable

system: not listed separately; assay: Stability in mouse plasma assessed as compound remaining at 5 uM after 1 hr by LCMS analysis; format: ADME, cell-free; details: read-out: Stability

Compound | remaining at 1 h, 5 µM [%]
C=CC(=O)Nc1cc(Nc2n[nH]c3cc(-c4ccncc4)ccc23)c(OC)cc1N(C)CCN(C)C | > 90
C=CC(=O)Nc1cc(Nc2n[nH]c3cc(-c4cn(C)c5ccccc45)ccc23)c(OC)cc1N(C)CCN(C)C | > 90

target: T1, Epidermal growth factor receptor (Homo sapiens, UniProt P00533); assay: Inhibition of EGF-induced wild-type EGFR phosphorylation in human A431 cells at 10 uM pre-incubated for 1 hr followed by EGF stimulation for 30 mins by Western blot analysis; format: cell-based; details: 0.5 h

Compound | inhibition (INH)
C=CC(=O)Nc1cc(Nc2n[nH]c3cc(-c4cn(C)c5ccccc45)ccc23)c(OC)cc1N(C)CCN(C)C | Active

system: not listed separately; assay: Inhibition of KRAS mutant in human A431 cells assessed as reduction in cell viability after 96 hrs by CellTiterGlo assay; format: cell-based; details: A-431, 96 h

Compound | EC50 [nM]
C=CC(=O)Nc1cc(Nc2n[nH]c3cc(-c4cn(C)c5ccccc45)ccc23)c(OC)cc1N(C)CCN(C)C | 2100

target: T2, Epidermal growth factor receptor (Homo sapiens, UniProt P00533, L858R/T790M); details: not given

Compound | IC50 [nM]
C=CC(=O)Nc1cc(Nc2n[nH]c3cc(-c4ccncc4)ccc23)c(OC)cc1N(C)CCN(C)C | 5
C=CC(=O)Nc1cc(Nc2n[nH]c3cc(-c4cn(C)c5ccccc45)ccc23)c(OC)cc1N(C)CCN(C)C | 4.8

target: T1, Epidermal growth factor receptor; assay: Reversible inhibition of wild-type human N-terminal GST-tagged EGFR cytoplasmic domain (669 to 1210 end amino acid residues) expressed in baculovirus expression system using TK peptide substrate preincubated for 2 to 90 mins followed by 6-fold dilution; details: not given

Compound | Ki [nM]
C=CC(=O)Nc1cc(Nc2n[nH]c3cc(-c4cn(C)c5ccccc45)ccc23)c(OC)cc1N(C)CCN(C)C | 236

target: T1, Epidermal growth factor receptor; assay: Inhibition of wild-type EGFR in human A431 cells assessed as reduction in cell viability after 96 hrs by CellTiterGlo assay; format: ADME, cell-based; details: not given

Compound | EC50 [µM]
C=CC(=O)Nc1cc(Nc2n[nH]c3cc(-c4ccncc4)ccc23)c(OC)cc1N(C)CCN(C)C | 3.94
C=CC(=O)Nc1cc(Nc2n[nH]c3cc(-c4cn(C)c5ccccc45)ccc23)c(OC)cc1N(C)CCN(C)C | 2.21

system: Epidermal growth factor receptor (Homo sapiens), P00533 [T790M]; assay: Binding affinity to EGFR T790M mutant (unknown origin) assessed as covalent adduct formation at 100 uM after 1 hr by ESI-MS analysis; details: not given

Compound | Activity
C=CC(=O)Nc1cc(Nc2n[nH]c3cc(-c4ccncc4)ccc23)c(OC)cc1N(C)CCN(C)C | Active
C=CC(=O)Nc1cc(Nc2n[nH]c3cc(-c4cn(C)c5ccccc45)ccc23)c(OC)cc1N(C)CCN(C)C | Active

target: T2, Epidermal growth factor receptor; assay: Reversible inhibition of human N-terminal GST-tagged EGFR L858R/T790M double mutant cytoplasmic domain (669 to 1210 end amino acid residues) expressed in baculovirus expression system using TK peptide substrate preincubated for 2 to 90 mins followed by 6-fold dilution; details: not given

Compound | Ki [nM]
C=CC(=O)Nc1cc(Nc2n[nH]c3cc(-c4cn(C)c5ccccc45)ccc23)c(OC)cc1N(C)CCN(C)C | 149

target: T3, Epidermal growth factor receptor (Homo sapiens, UniProt P00533, L858R); assay: (§1) Reversible inhibition of human N-terminal GST-tagged EGFR L858R mutant cytoplasmic domain (669 to 1210 end amino acid residues) expressed in baculovirus expression system using TK peptide substrate preincubated for 2 to 90 mins followed by 6-fold dilution; details: not given

Compound | Ki [nM]
C=CC(=O)Nc1cc(Nc2n[nH]c3cc(-c4cn(C)c5ccccc45)ccc23)c(OC)cc1N(C)CCN(C)C | 57

system: Epidermal growth factor receptor (Homo sapiens), P00533 [L858R]; assay: as §1; details: not given

Compound | inhibition
C=CC(=O)Nc1cc(Nc2n[nH]c3cc(-c4ccncc4)ccc23)c(OC)cc1N(C)CCN(C)C | Active

target: T2, Epidermal growth factor receptor; assay: (§2) Inhibition of EGF-induced EGFR L858R/T790M double mutant phosphorylation in human NCI-H1975 cells pre-incubated for 1 hr followed by EGF stimulation for 30 mins by Western blot analysis; format: cell-based; details: not given

Compound | EC50 [nM]
C=CC(=O)Nc1cc(Nc2n[nH]c3cc(-c4cn(C)c5ccccc45)ccc23)c(OC)cc1N(C)CCN(C)C | 100 to 1000

system: Epidermal growth factor receptor (Homo sapiens), P00533 [L858R,T790M]; assay: as §2; format: cell-based; details: not given

Compound | inhibition
C=CC(=O)Nc1cc(Nc2n[nH]c3cc(-c4cn(C)c5ccccc45)ccc23)c(OC)cc1N(C)CCN(C)C | Dose-dependent effect

system: Epidermal growth factor receptor (Homo sapiens), P00533 [L858R,T790M,C797S]; assay: Inhibition of EGFR L858R/T790M/C797S triple mutant (unknown origin) by HTRF assay; details: not given

Compound | inhibition
C=CC(=O)Nc1cc(Nc2n[nH]c3cc(-c4ccncc4)ccc23)c(OC)cc1N(C)CCN(C)C | inactive
C=CC(=O)Nc1cc(Nc2n[nH]c3cc(-c4cn(C)c5ccccc45)ccc23)c(OC)cc1N(C)CCN(C)C | inactive

target: T1, Epidermal growth factor receptor; format: ADME; details: not given

Compound | IC50 [nM]
C=CC(=O)Nc1cc(Nc2n[nH]c3cc(-c4ccncc4)ccc23)c(OC)cc1N(C)CCN(C)C | 30
C=CC(=O)Nc1cc(Nc2n[nH]c3cc(-c4cn(C)c5ccccc45)ccc23)c(OC)cc1N(C)CCN(C)C | 9.3

system: not listed separately; assay: Stability in human plasma assessed as compound remaining at 5 uM after 1 hr by LCMS analysis; format: ADME, cell-free; details: read-out: Stability

Compound | remaining at 1 h, 5 µM [%]
C=CC(=O)Nc1cc(Nc2n[nH]c3cc(-c4ccncc4)ccc23)c(OC)cc1N(C)CCN(C)C | > 75
C=CC(=O)Nc1cc(Nc2n[nH]c3cc(-c4cn(C)c5ccccc45)ccc23)c(OC)cc1N(C)CCN(C)C | > 75

system: Epidermal growth factor receptor (Homo sapiens), P00533 [L858R,T790M]; assay: Inhibition of EGFR L858R/T790M double mutant in human NCI-H1975 cells assessed as reduction in EGF-induced Akt phosphorylation at S473 at 0.1 to 10 uM pre-incubated for 1 hr followed by EGF stimulation for 30 mins by Western blot analysis; format: cell-based; details: not given

Compound | inhibition
C=CC(=O)Nc1cc(Nc2n[nH]c3cc(-c4cn(C)c5ccccc45)ccc23)c(OC)cc1N(C)CCN(C)C | Active

target: T1, Epidermal growth factor receptor; assay: Ratio of Kinact to Ki for reversible inhibition of wild-type human N-terminal GST-tagged EGFR cytoplasmic domain (669 to 1210 end amino acid residues) expressed in baculovirus expression system; details: not given

Compound | kinact/KI [M⁻¹ s⁻¹]
C=CC(=O)Nc1cc(Nc2n[nH]c3cc(-c4cn(C)c5ccccc45)ccc23)c(OC)cc1N(C)CCN(C)C | 20000

system: not listed separately; assay: Inhibition of KRAS mutant in human H358 cells assessed as reduction in cell viability after 96 hrs by CellTiterGlo assay; format: cell-based; details: NCI-H358, 96 h

Compound | EC50 [nM]
C=CC(=O)Nc1cc(Nc2n[nH]c3cc(-c4cn(C)c5ccccc45)ccc23)c(OC)cc1N(C)CCN(C)C | 2600

system: Epidermal growth factor receptor (Homo sapiens), P00533 [L858R,T790M]; details: not given

Compound | Kinact [min⁻¹]
C=CC(=O)Nc1cc(Nc2n[nH]c3cc(-c4cn(C)c5ccccc45)ccc23)c(OC)cc1N(C)CCN(C)C | 0.37

system: Epidermal growth factor receptor (Homo sapiens), P00533 [L858R]; details: not given

Compound | Kinact [min⁻¹]
C=CC(=O)Nc1cc(Nc2n[nH]c3cc(-c4cn(C)c5ccccc45)ccc23)c(OC)cc1N(C)CCN(C)C | 0.14

system: Liver; assay: Stability in mouse liver microsomes at 3 uM up to 50 mins by LCMS analysis; format: ADME, microsome; details: not given

Compound | Stability
C=CC(=O)Nc1cc(Nc2n[nH]c3cc(-c4ccncc4)ccc23)c(OC)cc1N(C)CCN(C)C | Stable
C=CC(=O)Nc1cc(Nc2n[nH]c3cc(-c4cn(C)c5ccccc45)ccc23)c(OC)cc1N(C)CCN(C)C | Stable

target: T1, Epidermal growth factor receptor; assay: Reversible inhibition of wild-type human N-terminal GST-tagged EGFR cytoplasmic domain (669 to 1210 end amino acid residues) expressed in baculovirus expression system using TK peptide substrate assessed as inactivation constant preincubated for 2 to 90 mins followed by 6-fold dilution; details: not given

Compound | kinact [s⁻¹]
C=CC(=O)Nc1cc(Nc2n[nH]c3cc(-c4cn(C)c5ccccc45)ccc23)c(OC)cc1N(C)CCN(C)C | 0.00467

target: T3, Epidermal growth factor receptor; details: not given

Compound | IC50 [nM]
C=CC(=O)Nc1cc(Nc2n[nH]c3cc(-c4ccncc4)ccc23)c(OC)cc1N(C)CCN(C)C | 14
C=CC(=O)Nc1cc(Nc2n[nH]c3cc(-c4cn(C)c5ccccc45)ccc23)c(OC)cc1N(C)CCN(C)C | 1.5
